The assay deals with T1, C5aR (Homo sapiens, UniProt P21730).
T1 construct: U937 cells are a monocytic cell line which express C5aR; host or cells: U937 cells (cAMP treated) or isolated neutrophils
T1 sequence (P21730 1-350): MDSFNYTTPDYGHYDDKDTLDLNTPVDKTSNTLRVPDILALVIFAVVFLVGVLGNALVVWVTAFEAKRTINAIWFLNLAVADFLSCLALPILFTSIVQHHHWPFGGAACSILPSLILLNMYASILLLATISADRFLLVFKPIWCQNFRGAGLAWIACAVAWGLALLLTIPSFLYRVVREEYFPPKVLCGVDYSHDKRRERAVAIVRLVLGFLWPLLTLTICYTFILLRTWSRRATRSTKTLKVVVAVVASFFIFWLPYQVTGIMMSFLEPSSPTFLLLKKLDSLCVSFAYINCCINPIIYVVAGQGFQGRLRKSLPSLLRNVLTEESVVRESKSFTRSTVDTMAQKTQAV
Put plainly: chemotaxis assay (C5aR mediated migration). The format is cell-based. The following applies: migration of U937 or neutrophil cells toward C5a (0.03 nM), 1.5 hours at 37° C., read-out: Mig IC50. The procedure: U937 cells are a monocytic cell line which express C5aR, and are available from ATCC (VA). […] Cells were grown under 5% CO2/95% air, 100% humidity at 37° C. and subcultured twice weekly at 1:6 (cells were cultured at a density range of 1×10^5 to 2×10^6 cells/mL) and harvested at 1×10^6 cells/mL. Prior to assay, cells are treated overnight with 0.5 mM of cyclic AMP (Sigma, Ohio) and washed once prior to use. cAMP treated U937 cells can be used in C5aR ligand binding and functional assays.
Optionally, human or murine neutrophils can be used to assay for compound activity. Neutrophils may be isolated from fresh human blood using density separation and centrifugation. Briefly, whole blood is incubated with equal parts 3% dextran and allowed to separate for 45 minutes. After separation, the top layer is layered on top of 15 mls of Ficoll (15 mls of Ficoll for every 30 mls of blood suspension) and centrifuged for 30 minutes at 400×g with no brake. The pellet at the bottom of the tube is then isolated and resuspended into PharmLyse RBC Lysis Buffer (BD Biosciences, San Jose, Calif.) after which the sample is again centrifuged for 10 minutes at 400×g with brake. The remaining cell pellet is resuspended as appropriate and consists of isolated neutrophils.
Optionally, compounds may be further assayed for their ability to inhibit chemotaxis in cells. Chemotaxis assays are performed using 5 μm pore polycarbonate, polyvinylpyrrolidone-coated filters in 96-well chemotaxis chambers (Neuroprobe; Gaithersburg, Md.) using chemotaxis buffer (Hank's balanced salt solution (HBSS) and 1% FBS). C5aR ligands (i.e., C5a, R&D Systems; Minneapolis, Minn.) are use to evaluate compound mediated inhibition of C5aR mediated migration. Other chemokines (i.e., SDF-1α; R&D Systems; Minneapolis, Minn.) are used as specificity controls. […] The chambers are incubated 1.5 hours at 37° C., and the number of cells in the lower chamber quantified either by direct cell counts in five high powered fields per well or by the CyQuant assay (Molecular Probes), a fluorescent dye method that measures nucleic acid content and microscopic observation.

`Cc1cccc(C)c1-n1nc2c(c1-c1ccc(Cl)c3[nH]ncc13)CN(c1ncc(C(F)(F)F)cn1)CC2` [Example 1.049]: the IC50 – broadly, the concentration that gives 50% inhibition – lay in the range of 5 to 50 nM.

In the case of `CCc1cccc(CC)c1-n1nc2c(c1-c1cc(F)c(OC)c3[nH]ccc13)CN(c1ncc(C3CC3)cn1)CC2` [Example 1.050], the IC50 was less than 5 nM.

As for `CCc1cccc(CC)c1-n1nc2c(c1-c1cc(F)c(OC)c3[nH]ncc13)CN(c1ncc(C(F)(F)F)cc1F)CC2` [Example 1.051], the IC50 was less than 5 nM.

`CCc1cccc(CC)c1-n1nc2c(c1-c1ccc(OC)c3[nH]ncc13)CN(c1ncc(C(F)(F)F)cc1F)CC2` [Example 1.052]: the IC50 was in the range of 5 to 50 nM.

With `CCc1cccc(CC)c1-n1nc2c(c1-c1ccc(OC)c3[nH]ncc13)CN(c1ncc(C(F)(F)F)cn1)CC2` [Example 1.053], the IC50 was less than 5 nM.

For `CCc1cccc(CC)c1-n1nc2c(c1-c1cc(F)c(OC)c3[nH]ccc13)CN(c1ncc(OC(C)C)cn1)CC2` [Example 1.054], the IC50 is less than 5 nM.

For `CCc1cccc(CC)c1-n1nc2c(c1-c1c(F)cc(Cl)c3[nH]ccc13)CN(c1ncc(CN3CCCC3)cn1)CC2` [Example 1.055], the IC50 fell in the range of 5 to 50 nM.

As to `CCc1cccc(CC)c1-n1nc2c(c1-c1cc(F)c(OC)c3[nH]ncc13)CN(c1ncc(C(F)(F)F)cn1)CC2` [Example 1.056], the IC50 was less than 5 nM.

As to `CCc1cccc(CC)c1-n1nc2c(c1-c1ccc(Cl)c3[nH]ccc13)CN(c1cnccn1)CC2` [Example 1.057], the 50% inhibitory concentration (IC50) was less than 5 nM.

As to `CCc1cccc(CC)c1-n1nc2c(c1-c1ccc(Cl)c3[nH]ccc13)CN(c1cnc(C(F)(F)F)cn1)CC2` [Example 1.058], the IC50 is less than 5 nM.

For `CCc1cccc(CC)c1-n1nc2c(c1-c1cc(F)c(OC)c3[nH]ccc13)CN(c1ncc(C(F)(F)F)cn1)CC2` [Example 1.059], the IC50 was less than 5 nM.

As for `Cc1cccc(C)c1-n1nc2c(c1-c1ccc(Cl)c3[nH]ccc13)CN(c1ncc(C(F)(F)F)cn1)CC2` [Example 1.060], the IC50 is less than 5 nM.

`CCc1cccc(CC)c1-n1nc2c(c1-c1cc(F)c(OC)c3[nH]ccc13)CN(c1ncc(C(F)(F)F)cc1F)CC2` [Example 1.061]: the IC50 was less than 5 nM.

Take `CCc1cccc(CC)c1-n1nc2c(c1-c1c(F)cc(Cl)c3[nH]ccc13)CN(c1ncc(C3CC3)cc1F)CC2` [Example 1.062]: the IC50 was less than 5 nM.

With `CCc1cccc(CC)c1-n1nc2c(c1-c1ccc(Cl)c3[nH]ccc13)CN(c1ncc(OC(C)C)cn1)CC2` [Example 1.063], the IC50 was less than 5 nM.

Consider `CCc1cccc(CC)c1-n1nc2c(c1-c1ccc(Cl)c3[nH]ccc13)CN(c1ncc(C(N)=O)cn1)CC2` [Example 1.064], for which the IC50 is 50 to 500 nM.

As to `CCc1cccc(CC)c1-n1nc2c(c1-c1ccc(Cl)c3[nH]ncc13)CN(c1ncc(C3CC3)cn1)CC2` [Example 1.065], the IC50 is less than 5 nM.

As for `CCc1cccc(CC)c1-n1nc2c(c1-c1c(F)cc(CO)c3[nH]ccc13)CN(c1ncc(C3CC3)cn1)CC2` [Example 1.066], the IC50 was less than 5 nM.

Regarding `CCc1cccc(CC)c1-n1nc2c(c1-c1ccc(Cl)c3[nH]ccc13)CN(c1cnc(C3CC3)cn1)CC2` [Example 1.067], the IC50 fell in the range of 5 to 50 nM.

As to `CCc1cccc(CC)c1-n1nc2c(c1-c1cc(F)c(CO)c3[nH]ccc13)CN(c1ncc(C(C)(C)O)cn1)CC2` [Example 1.068], the IC50 is 5 to 50 nM.

Take `CCc1cccc(CC)c1-n1nc2c(c1-c1ccc(Cl)c3[nH]cnc13)CN(c1ncc(C(F)(F)F)cn1)CC2` [Example 1.069]: the IC50 is less than 5 nM.

For the compound `CCc1cccc(CC)c1-n1nc2c(c1-c1c(F)cc(Cl)c3[nH]ccc13)CN(c1ncc(C3CC3)cn1)CC2` [Example 1.070], the IC50 is less than 5 nM.

As to `CCc1cccc(CC)c1-n1nc2c(c1-c1ccc(Cl)c3[nH]ccc13)CN(c1ncc(C3CC3)cc1F)CC2` [Example 1.071], the IC50 was less than 5 nM.

With `CCc1cccc(CC)c1-n1nc2c(c1-c1ccc(Cl)c3[nH]ccc13)CN(c1ncc(C)c(CO)n1)CC2` [Example 1.072], the IC50 lay within 5 to 50 nM.

`CCc1cccc(CC)c1-n1nc2c(c1-c1ccc(Cl)c3[nH]ccc13)CN(c1ncc(C3CC3)cc1Cl)CC2` [Example 1.073]: the IC50 was less than 5 nM.

As for `CCc1cccc(CC)c1-n1nc2c(c1-c1ccc(Cl)c3[nH]ccc13)CN(c1ncc(C(C)(C)O)cn1)CC2` [Example 1.074], the IC50 was less than 5 nM.

Take `CCc1cccc(CC)c1-n1nc2c(c1-c1ccc(Cl)c3[nH]ccc13)CN(c1ncc(C)c(C(=O)O)n1)CC2` [Example 1.075]: the IC50 was in the range of 50 to 500 nM.

For `CCc1cccc(CC)c1-n1nc2c(c1-c1c(F)cc(Cl)c3[nH]ccc13)CN(c1ncc(C(=O)N3CCCC3)cn1)CC2` [Example 1.076], the IC50 is less than 5 nM.

As for `CCc1cccc(CC)c1-n1nc2c(c1-c1cc(F)c(CO)c3[nH]ccc13)CN(c1ncc(C(F)(F)F)cn1)CC2` [Example 1.077], the IC50 was less than 5 nM.

Consider `CCc1cccc(CC)c1-n1nc2c(c1-c1cc(F)c(CO)c3[nH]ccc13)CN(c1ncc(C(F)(F)F)cc1F)CC2` [Example 1.078], for which the IC50 is less than 5 nM.

For `CCc1cccc(CC)c1-n1nc2c(c1-c1ccc(F)c3[nH]ncc13)CN(c1ncc(C(F)(F)F)cc1F)CC2` [Example 1.079], the concentration for half-maximal inhibition (IC50) lay within 50 to 500 nM.

On to `CCc1cccc(CC)c1-n1nc2c(c1-c1cc(Cl)c(C)c3[nH]ccc13)CN(c1ncc(C(F)(F)F)cc1F)CC2` [Example 1.080], for which the IC50 was less than 5 nM.

As for `CCc1cccc(CC)c1-n1nc2c(c1-c1cc(Cl)c(C)c3[nH]ccc13)CN(c1ncc(C(F)(F)F)cn1)CC2` [Example 1.081], the IC50 was less than 5 nM.

Take `CCc1cccc(CC)c1-n1nc2c(c1-c1ccc3[nH]ccc3c1)CN(c1ncc(C(F)(F)F)cc1F)CC2` [Example 1.082]: the IC50 fell in the range of 5 to 50 nM.

In the case of `CCc1cccc(CC)c1-n1nc2c(c1-c1cc(F)c3[nH]ccc3c1)CN(c1ncc(C(F)(F)F)cc1F)CC2` [Example 1.083], the IC50 lay within 5 to 50 nM.

`CCc1cccc(CC)c1-n1nc2c(c1-c1cc(F)c(Cl)c3[nH]ccc13)CN(c1ncc(C(F)(F)F)cn1)CC2` [Example 1.084]: the IC50 was less than 5 nM.

As to `CCc1cccc(CC)c1-n1nc2c(c1-c1cc(F)c(Cl)c3[nH]ccc13)CN(c1ncc(C(F)(F)F)cc1F)CC2` [Example 1.085], the IC50 was less than 5 nM.

For the compound `CCc1cccc(CC)c1-n1nc2c(c1-c1ccc(Cl)c3[nH]ccc13)CN(c1ccc(OC(F)(F)F)cn1)CC2` [Example 1.086], the IC50 is less than 5 nM.

With `CCc1cccc(CC)c1-n1nc2c(c1-c1ccc(OC)c3[nH]ccc13)CN(c1ncc(C(F)(F)F)cn1)CC2` [Example 1.087], the IC50 was 5 to 50 nM.

Take `CCc1cccc(CC)c1-n1nc2c(c1-c1ccc(Cl)c3[nH]ccc13)CN(c1ncc(C(F)(F)F)cc1C)CC2` [Example 1.088]: the IC50 was less than 5 nM.

As for `CCc1cccc(CC)c1-n1nc2c(c1-c1ccc(OC)c3[nH]ccc13)CN(c1ncc(C(F)(F)F)cc1F)CC2` [Example 1.089], the IC50 lay in the range of 5 to 50 nM.

`Cc1cccc(C)c1-n1nc2c(c1-c1c(F)cc(CO)c3[nH]ccc13)CN(c1ncc(C(F)(F)F)cn1)CC2` [Example 1.090]: the IC50 is 5 to 50 nM.

Regarding `Cc1cccc(C)c1-n1nc2c(c1-c1c(F)cc(C)c3[nH]ccc13)CN(c1ncc(Cl)cc1F)CC2` [Example 1.091], the IC50 was in the range of 5 to 50 nM.

Regarding `Cc1cccc(C)c1-n1nc2c(c1-c1c(F)cc(C)c3[nH]ccc13)CN(c1ncc(C(F)(F)F)cn1)CC2` [Example 1.092], the IC50 was less than 5 nM.

Turning to `CCc1cccc(CC)c1-n1nc2c(c1-c1cc(F)c(C)c3[nH]ccc13)CN(c1ncc(C(F)(F)F)cn1)CC2` [Example 1.093], the IC50 is less than 5 nM.

For `CCc1cccc(CC)c1-n1nc2c(c1-c1c(F)cc(CO)c3[nH]ccc13)CN(c1ncc(C(C)C)cc1F)CC2` [Example 1.094], the half-inhibitory concentration (IC50) is less than 5 nM.

Consider `Cc1cccc(C)c1-n1nc2c(c1-c1c(F)cc(C)c3[nH]ccc13)CN(c1ncc(C(F)(F)F)cc1F)CC2` [Example 1.095], for which the IC50 was less than 5 nM.

In the case of `Cc1cccc(C)c1-n1nc2c(c1-c1c(F)cc(C)c3[nH]ccc13)CN(c1ncc(C(C)C)cn1)CC2` [Example 1.096], the IC50 is less than 5 nM.

Values taken from patent publication US11384079B2, “6-5 fused rings as C5a inhibitors” (CHEMOCENTRYX, INC., priority 2017, dated 2022).
